Results published in ChEMBL document CHEMBL2169792, “Synthesis of new 4-thiazolidinone-, pyrazoline-, and isatin-based conjugates with promising antitumor activity” (J Med Chem, 2012).
Activity calls are given as the source filed them. No cut-off for these calls is given here.

What was measured:
K562 = assay: Cytotoxicity against human K562 cells after 48 hrs by SRB assay; format: functional; conditions: K562, 48 h
786-0 = assay: Cytotoxicity against human 786-0 cells after 48 hrs by SRB assay; format: functional; conditions: 786-0, 48 h
PC-3 = assay: Cytotoxicity against human PC3 cells after 48 hrs by SRB assay; format: functional; conditions: PC-3, 48 h
KM12 = assay: Cytotoxicity against human KM12 cells after 48 hrs by SRB assay; format: functional; conditions: KM12, 48 h
[1] = Cytotoxicity against human breast cancer cells after 48 hrs by SRB assay; format: functional; conditions: Cancer cell lines
SK-MEL-5 [2] = assay: Cytotoxicity against human SK-MEL-5 cells after 48 hrs by SRB assay; format: functional; conditions: SK-MEL-5, 48 h, read-out: LC50 (the source's name)
NCI-H322M = assay: Cytotoxicity against human NCI-H322M cells after 48 hrs by SRB assay; format: functional
NCI-H460 = assay: Cytotoxicity against human NCI-H460 cells after 48 hrs by SRB assay; format: functional; conditions: NCI-H460, 48 h
OVCAR-8 = assay: Cytotoxicity against human OVCAR8 cells after 48 hrs by SRB assay; format: functional; conditions: OVCAR-8, 48 h
NCI-H522 = assay: Cytotoxicity against human NCI-H522 cells after 48 hrs by SRB assay; format: functional; conditions: NCI-H522, 48 h
HL-60(TB) = assay: Cytotoxicity against human HL-60(TB) cells after 48 hrs by SRB assay; format: functional; conditions: HL-60, 48 h
CCRF-CEM = assay: Cytotoxicity against human CCRF-CEM cells after 48 hrs by SRB assay; format: functional
T47D = assay: Cytotoxicity against human T47D cells after 48 hrs by SRB assay; format: functional
SW-620 = assay: Cytotoxicity against human SW620 cells after 48 hrs by SRB assay; format: functional; conditions: SW-620, 48 h
NCI/ADR-RES = assay: Cytotoxicity against human NCI/ADR-RES cells after 48 hrs by SRB assay; format: functional
A549 = assay: Cytotoxicity against human A549 cells after 48 hrs by SRB assay; format: functional; conditions: A549, 48 h
SK-OV-3 = assay: Cytotoxicity against human SKOV3 cells after 48 hrs by SRB assay; format: functional; conditions: SK-OV-3, 48 h
SR = assay: Cytotoxicity against human SR cells after 48 hrs by SRB assay; format: functional
[3] = Toxicity in mouse; format: organism-based; conditions: in vivo
OVCAR-4 = assay: Cytotoxicity against human OVCAR4 cells after 48 hrs by SRB assay; format: functional; conditions: OVCAR-4, 48 h
NCI-H23 = assay: Cytotoxicity against human NCI-H23 cells after 48 hrs by SRB assay; format: functional; conditions: NCI-H23, 48 h
HCT-116 = assay: Cytotoxicity against human HCT116 cells after 48 hrs by SRB assay; format: functional; conditions: HCT-116, 48 h
DU-145 = assay: Cytotoxicity against human DU145 cells after 48 hrs by SRB assay; format: functional; conditions: DU-145, 48 h
[4] = Cytotoxicity against human ovarian cancer cells after 48 hrs by SRB assay; format: functional; conditions: Cancer cell lines
SK-MEL-28 = assay: Cytotoxicity against human SK-MEL-28 cells after 48 hrs by SRB assay; format: functional; conditions: SK-MEL-28, 48 h
HT-29 = assay: Cytotoxicity against human HT-29 cells after 48 hrs by SRB assay; format: functional; conditions: HT-29, 48 h
SK-MEL-5 [5] = assay: Cytotoxicity against human SK-MEL-5 cells assessed as cell growth at 10 uM after 48 hrs by SRB assay; format: functional; conditions: SK-MEL-5, 48 h, read-out: Activity
LOX IMVI = assay: Cytotoxicity against human LOXIMVI cells after 48 hrs by SRB assay; format: functional
Mus musculus = assay: Antitumor activity in ip dosed athymic nude mouse hollow fiber model assessed as reduction of viable cell mass; format: functional, organism-based
Malme-3M = assay: Cytotoxicity against human MALME-3M cells after 48 hrs by SRB assay; format: functional
U-251 = assay: Cytotoxicity against human U251 cells after 48 hrs by SRB assay; format: functional; conditions: U-251, 48 h
SNB-75 = assay: Cytotoxicity against human SNB75 cells after 48 hrs by SRB assay; format: functional; conditions: SNB-75, 48 h
HOP-62 = assay: Cytotoxicity against human HOP62 cells after 48 hrs by SRB assay; format: functional; conditions: HOP-62, 48 h
SNB-19 = assay: Cytotoxicity against human SNB19 cells after 48 hrs by SRB assay; format: functional; conditions: SNB-19, 48 h
M14 = assay: Cytotoxicity against human M14 cells after 48 hrs by SRB assay; format: functional; conditions: M14, 48 h
COLO 205 = assay: Cytotoxicity against human COLO205 cells after 48 hrs by SRB assay; format: functional; conditions: COLO 205, 48 h
[6] = read-out: LC50 (the source's name)

COc1ccc(C2CC(c3ccc4ccccc4c3)=NN2C2=NC(=O)/C(=C3\C(=O)Nc4ccc(Br)cc43)S2)cc1 (configuration not stated)
GI50 (K562): 37 nM
TGI (K562): > 12400 nM
CC50 (K562; [6]): > 100000 nM
GI50 (786-0): 19.4 nM
TGI (786-0): 38.7 nM
CC50 (786-0; [6]): > 77.2 nM
GI50 (PC-3): 26 nM
TGI (PC-3): 82.7 nM
CC50 (PC-3; [6]): 5460 nM
GI50 (KM12): 23.1 nM
TGI (KM12): 53.5 nM
CC50 (KM12; [6]): 231 nM
GI50 [1]: 61 nM
LC50 (concentration causing 50% net cell kill) [1]: 2650 nM
TGI [1]: 990 nM
CC50 (SK-MEL-5 [2]): 341 nM
GI50 (NCI-H322M): 36 nM
TGI (NCI-H322M): 560 nM
CC50 (NCI-H322M; [6]): > 64100 nM
GI50 (NCI-H460): 33.1 nM
TGI (NCI-H460): 112 nM
CC50 (NCI-H460; [6]): 5450 nM
GI50 (OVCAR-8): 32 nM
TGI (OVCAR-8): 176 nM
CC50 (OVCAR-8; [6]): 24100 nM
GI50 (NCI-H522): 124 nM
TGI (NCI-H522): 288 nM
GI50 (HL-60(TB)): 257 nM
TGI (HL-60(TB)): 3200 nM
CC50 (HL-60(TB); [6]): > 49300 nM
GI50 (CCRF-CEM): 32.9 nM
TGI (CCRF-CEM): 483 nM
CC50 (CCRF-CEM; [6]): > 100000 nM
GI50 (T47D): 23.6 nM
TGI (T47D): 61 nM
GI50 (SW-620): 22 nM
TGI (SW-620): 47.7 nM
CC50 (SW-620; [6]): 127 nM
GI50 (NCI/ADR-RES): 675 nM
TGI (NCI/ADR-RES): > 100000 nM
CC50 (NCI/ADR-RES; [6]): > 100000 nM
GI50 (A549): 24.7 nM
TGI (A549): 69.5 nM
CC50 (A549; [6]): 25700 nM
GI50 (SK-OV-3): 33 nM
TGI (SK-OV-3): > 114 nM
CC50 (SK-OV-3; [6]): > 2840 nM
GI50 (SR): 28.9 nM
TGI (SR): 130 nM
CC50 (SR; [6]): > 100000 nM
MTD [3]: > 400 mg/kg
GI50 (OVCAR-4): 32.6 nM
TGI (OVCAR-4): > 111 nM
CC50 (OVCAR-4; [6]): > 100000 nM
GI50 (NCI-H23): 24.6 nM
TGI (NCI-H23): 56.7 nM
CC50 (NCI-H23; [6]): 291 nM
GI50 (HCT-116): 18 nM
TGI (HCT-116): 33.5 nM
CC50 (HCT-116; [6]): > 62.4 nM
GI50 (DU-145): 39.3 nM
TGI (DU-145): 752 nM
CC50 (DU-145; [6]): 25500 nM
GI50 [4]: 110 nM
LC50 (concentration causing 50% net cell kill) [4]: 18800 nM
TGI [4]: 850 nM
GI50 (SK-MEL-28): 21.8 nM
TGI (SK-MEL-28): 51.5 nM
CC50 (SK-MEL-28; [6]): > 205 nM
GI50 (HT-29): 199 nM
TGI (HT-29): 537 nM
growth at 10 µM (SK-MEL-5 [5]): -59.8%
GI50 (LOX IMVI): 24.3 nM
TGI (LOX IMVI): 58.9 nM
CC50 (LOX IMVI; [6]): 249 nM
Activity (Mus musculus): inactive
GI50 (Malme-3M): 27.7 nM
TGI (Malme-3M): 72.9 nM
CC50 (Malme-3M; [6]): 640 nM
GI50 (U-251): 24.6 nM
TGI (U-251): 57.8 nM
CC50 (U-251; [6]): 289 nM
GI50 (SNB-75): 15.9 nM
TGI (SNB-75): 34.3 nM
CC50 (SNB-75; [6]): > 69.8 nM
GI50 (HOP-62): 22 nM
TGI (HOP-62): 49.8 nM
CC50 (HOP-62; [6]): > 157 nM
GI50 (SNB-19): 38.5 nM
TGI (SNB-19): 411 nM
CC50 (SNB-19; [6]): 8980 nM
GI50 (M14): 24.5 nM
TGI (M14): 59.3 nM
CC50 (M14; [6]): > 210 nM
GI50 (COLO 205): 21 nM
TGI (COLO 205): 42 nM
CC50 (COLO 205; [6]): > 84.1 nM
